# From patent publication US9676751B2, “2-amino-3-ester-pyridl orexin receptor antagonists” (MERCK SHARP & DOHME CORP., priority 2013, dated 2017)
# Tests used:
# human orexin-2 receptor = molecular target: T1, human orexin-2 receptor (Homo sapiens, UniProt O43614); assay: FLIPR Ca2+ Flux Assay, CHO cells expressing the human orexin-2 receptor; type: cell-based; conditions: agonist 70 pM Ala-6,12 orexin-A, read-out: hOX2R FLIPR IC50
# T1 construct: expressed in transfected cells; host or cells: CHO cells
# T1 sequence (O43614 1-444): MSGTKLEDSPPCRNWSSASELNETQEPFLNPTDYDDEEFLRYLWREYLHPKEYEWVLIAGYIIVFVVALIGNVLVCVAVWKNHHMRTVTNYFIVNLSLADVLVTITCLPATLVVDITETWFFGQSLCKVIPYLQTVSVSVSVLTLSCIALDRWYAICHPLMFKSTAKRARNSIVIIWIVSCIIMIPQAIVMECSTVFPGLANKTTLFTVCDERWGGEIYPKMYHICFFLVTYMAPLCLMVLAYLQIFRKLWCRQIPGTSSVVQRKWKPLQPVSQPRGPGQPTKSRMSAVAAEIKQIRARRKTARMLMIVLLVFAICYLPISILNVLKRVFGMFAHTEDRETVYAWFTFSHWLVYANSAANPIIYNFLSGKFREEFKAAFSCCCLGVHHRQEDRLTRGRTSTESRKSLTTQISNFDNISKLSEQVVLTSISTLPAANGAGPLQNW
# Procedure: The utility of the compounds in accordance with the present invention as orexin receptor OX1R and/or OX2R antagonists may be readily determined without undue experimentation by methodology well known in the art, including the “FLIPR Ca^2+ Flux Assay” (Okumura et al., Biochem. Biophys. Res. Comm. 280:976-981, 2001). In a typical experiment the OX1 and OX2 receptor antagonistic activity of the compounds of the present invention was determined in accordance with the following experimental method. For intracellular calcium measurements, Chinese hamster ovary (CHO) cells expressing the rat orexin-1 receptor or the human orexin-2 receptor, are grown in Iscove's modified DMEM containing 2 mM L-glutamine, […], 1% hypoxanthine-thymidine supplement, 100 U/ml penicillin, 100 μg/ml streptomycin and 10% heat-inactivated fetal calf serum (FCS). The cells are seeded at 20,000 cells/well into Becton-Dickinson black 384-well clear bottom sterile plates coated with poly-D-lysine. All reagents were from GIBCO-Invitrogen Corp. The seeded plates are incubated overnight at 37° C. and 5% CO2. Ala-6,12 human orexin-A as the agonist is prepared as a 1 mM stock solution in 1% bovine serum albumin (BSA) and diluted in assay buffer (HBSS containing 20 mM HEPES, 0.1% BSA and 2.5 mM probenecid, pH7.4) for use in the assay at a final concentration of 70 pM. Test compounds are prepared as 10 mM stock solution in DMSO, then diluted in 384-well plates, first in DMSO, then assay buffer. On the day of the assay, cells are washed 3 times with 100 μl assay buffer and then incubated for 60 min (37° C., 5% CO2) in 60 μl assay buffer containing 1 μM Fluo-4AM ester, 0.02% pluronic acid, and 1% BSA. The dye loading solution is then aspirated and cells are washed 3 times with 100 μl assay buffer. 30 μl of that same buffer is left in each well. Within the Fluorescent Imaging Plate Reader (FLIPR, Molecular Devices), test compounds are added to the plate in a volume of 25 μl, incubated for 5 min and finally 25 μl of agonist is added. Fluorescence is measured for each well at 1 second intervals for 5 minutes and the height of each fluorescence peak is compared to the height of the fluorescence peak induced by 70 pM Ala-6,12 orexin-A with buffer in place of antagonist. For each antagonist, IC50 value (the concentration of compound needed to inhibit 50% of the agonist response) is determined. Alternatively, compound potency can be assessed by a radioligand binding assay (described in Bergman et. al. Bioorg. Med. Chem. Lett. 2008, 18, 1425-1430) in which the inhibition constant (Ki) is determined in membranes prepared from CHO cells expressing either the OX1 or OX2 receptor. The intrinsic orexin receptor antagonist activity of a compound which may be used in the present invention may be determined by these assays.
# hOX1R = molecular target: T2, hOX1R (Homo sapiens, UniProt O43613); assay: FLIPR Ca2+ Flux Assay, CHO cells expressing the orexin-1 receptor; type: cell-based; conditions: agonist 70 pM Ala-6,12 orexin-A
# T2 construct: expressed in transfected cells; host or cells: CHO cells
# T2 sequence (O43613 1-425): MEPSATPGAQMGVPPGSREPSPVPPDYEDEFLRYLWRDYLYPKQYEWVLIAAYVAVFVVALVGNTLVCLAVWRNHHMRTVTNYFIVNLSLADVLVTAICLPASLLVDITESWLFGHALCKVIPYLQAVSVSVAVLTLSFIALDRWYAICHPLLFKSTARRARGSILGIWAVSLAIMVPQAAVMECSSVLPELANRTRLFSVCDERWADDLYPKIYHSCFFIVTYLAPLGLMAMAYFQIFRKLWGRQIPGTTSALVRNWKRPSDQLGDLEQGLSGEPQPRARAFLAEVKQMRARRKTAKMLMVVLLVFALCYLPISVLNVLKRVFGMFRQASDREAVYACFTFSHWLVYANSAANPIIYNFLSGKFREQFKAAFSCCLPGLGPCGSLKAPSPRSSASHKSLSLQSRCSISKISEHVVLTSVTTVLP
Structure (SMILES),IC50 (human orexin-2 receptor),IC50 (hOX1R)
"COC(=O)c1cccnc1N[C@@H]1CC[C@@H](C)N(C(=O)c2ccccc2-n2nccn2)C1 [Example 1, Methyl 2-{[(3R,6R)-6-methyl-1-{[2-(2H-1,2,3-triazol-2-yl)phenyl]carbonyl}piperidin-3-yl]amino}pyridine-3-carboxylate]",38 nM,–
"COC(=O)c1c(OC)ccnc1N[C@@H]1CC[C@@H](C)N(C(=O)c2ccccc2-n2nccn2)C1 [Example 2, Methyl 4-methoxy-2-{[(3R,6R)-6-methyl-1-{[2-(2H-1,2,3-triazol-2-yl)phenyl]carbonyl}-piperidin-3-yl]amino}pyridine-3-carboxylate]",25 nM,53 nM
"COC(=O)c1c(OC)ccnc1N[C@@H]1CC[C@@H](C)N(C(=O)c2ccccc2-n2ncnn2)C1 [Example 3, Methyl 4-methoxy-2-{[(3R,6R)-6-methyl-1-{[2-(2H-tetrazol-2-yl)phenyl]carbonyl}piperidin-3-yl]amino}pyridine-3-carboxylate]",34 nM,237 nM
"COC(=O)c1c(OC)ccnc1N[C@@H]1CC[C@@H](C)N(C(=O)c2cccc(F)c2-n2nccn2)C1 [Example 4, methyl 2-{[(3R,6R)-1-{[3-fluoro-2-(2H-1,2,3-triazol-2-yl)phenyl]carbonyl}-6-methylpiperidin-3-yl]amino}-4-methoxypyridine-3-carboxylate]",45 nM,362 nM
"COC(=O)c1c(OC)ccnc1N[C@@H]1CC[C@@H](C)N(C(=O)c2cc(F)ccc2-n2nccn2)C1 [Example 5, methyl 2-{[(3R,6R)-1-{[5-fluoro-2-(2H-1,2,3-triazol-2-yl)phenyl]carbonyl}-6-methylpiperidin-3-yl]amino}-4-methoxypyridine-3-carboxylate]",45 nM,207 nM
"COC(=O)c1c(OC)ccnc1N[C@@H]1CC[C@@H](C)N(C(=O)c2c(F)cccc2-n2nccn2)C1 [Example 6, methyl 2-{[(3R,6R)-1-{[2-fluoro-6-(2H-1,2,3-triazol-2-yl)phenyl]carbonyl}-6-methylpiperidin-3-yl]amino}-4-methoxypyridine-3-carboxylate]",54 nM,154 nM
"COC(=O)c1c(OC)ccnc1N[C@@H]1CC[C@@H](C)N(C(=O)c2ccccc2-c2nc(C)no2)C1 [Example 7, methyl 4-methoxy-2-{[(3R,6R)-6-methyl-1-{[2-(3-methyl-1,2,4-oxadiazol-5-yl)phenyl]carbonyl}piperidin-3-yl]amino}pyridine-3-carboxylate]",74 nM,309 nM
"COC(=O)c1c(OC)ccnc1N[C@@H]1CC[C@@H](C)N(C(=O)c2c(F)cccc2-c2nc(C)no2)C1 [Example 8, methyl 2-{[(3R,6R)-1-{[2-fluoro-6-(3-methyl-1,2,4-oxadiazol-5-yl)phenyl]carbonyl}-6-methylpiperidin-3-yl]amino}-4-methoxypyridine-3-carboxylate]",94 nM,288 nM
"COC(=O)c1c(OC)ccnc1N[C@@H]1CC[C@@H](C)N(C(=O)c2cccc(F)c2-c2noc(C)n2)C1 [Example 9, methyl 2-{[(3R,6R)-1-{[3-fluoro-2-(5-methyl-1,2,4-oxadiazol-3-yl)phenyl]carbonyl}-6-methylpiperidin-3-yl]amino}-4-methoxypyridine-3-carboxylate]",57 nM,236 nM
"COC(=O)c1c(OC)ccnc1N[C@@H]1CC[C@@H](C)N(C(=O)c2c(F)cccc2-c2noc(C)n2)C1 [Example 10, methyl 2-{[(3R,6R)-1-{[2-fluoro-6-(5-methyl-1,2,4-oxadiazol-3-yl)phenyl]carbonyl}-6-methylpiperidin-3-yl]amino}-4-methoxypyridine-3-carboxylate]",88 nM,332 nM
"COC(=O)c1c(OC)ccnc1N[C@@H]1CC[C@@H](C)N(C(=O)c2c(F)cccc2-c2ncccn2)C1 [Example 15, methyl 2-({(3R,6R)-1-[(2-fluoro-6-pyrimidin-2-ylphenyl)carbonyl]-6-methylpiperidin-3-yl}amino)-4-methoxypyridine-3-carboxylate]",38 nM,66 nM

# Results, then the molecule that gave them:
IC50 (human orexin-2 receptor),IC50 (hOX1R),Structure (SMILES)
41 nM,80 nM,"COC(=O)c1c(OC)ccnc1N[C@@H]1CC[C@@H](C)N(C(=O)c2ccccc2-c2ncccn2)C1 [Example 11, Methyl 4-methoxy-2-({(3R,6R)-6-methyl-1-[(2-pyrimidin-2-ylphenyl)carbonyl]piperidin-3-yl}amino)pyridine-3-carboxylate]"
53 nM,196 nM,"COC(=O)c1c(OC)ccnc1N[C@@H]1CC[C@@H](C)N(C(=O)c2cccc(F)c2-c2ncccn2)C1 [Example 12, methyl 2-({(3R,6R)-1-[(3-fluoro-2-pyrimidin-2-ylphenyl)carbonyl]-6-methylpiperidin-3-yl}amino)-4-methoxypyridine-3-carboxylate]"
44 nM,138 nM,"COC(=O)c1c(OC)ccnc1N[C@@H]1CC[C@@H](C)N(C(=O)c2ccc(F)cc2-c2ncccn2)C1 [Example 13, methyl 2-({(3R,6R)-1-[(4-fluoro-2-pyrimidin-2-ylphenyl)carbonyl]-6-methylpiperidin-3-yl}amino)-4-methoxypyridine-3-carboxylate]"
51 nM,83 nM,"COC(=O)c1c(OC)ccnc1N[C@@H]1CC[C@@H](C)N(C(=O)c2cc(F)ccc2-c2ncccn2)C1 [Example 14, methyl 2-({(3R,6R)-1-[(5-fluoro-2-pyrimidin-2-ylphenyl)carbonyl]-6-methylpiperidin-3-yl}amino)-4-methoxypyridine-3-carboxylate]"
40 nM,402 nM,"COC(=O)c1c(OC)ccnc1N[C@@H]1CC[C@@H](C)N(C(=O)c2sccc2-c2ncccn2)C1 [Example 16, methyl 4-methoxy-2-({(3R,6R)-6-methyl-1-[(3-pyrimidin-2-ylthiophen-2-yl)carbonyl]piperidin-3-yl}amino)pyridine-3-carboxylate]"
58 nM,266 nM,"COC(=O)c1c(OC)ccnc1N[C@@H]1CC[C@@H](C)N(C(=O)c2ccsc2-c2ncccn2)C1 [Example 17, methyl 4-methoxy-2-({(3R,6R)-6-methyl-1-[(2-pyrimidin-2-ylthiophen-3-yl)carbonyl]piperidin-3-yl}amino)pyridine-3-carboxylate]"
168 nM,338 nM,"COC(=O)c1c(OC)ccnc1N[C@@H]1CC[C@@H](C)N(C(=O)c2ncccc2-c2ncccn2)C1 [Example 18, methyl 4-methoxy-2-({(3R,6R)-6-methyl-1-[(3-pyrimidin-2-ylpyridin-2-yl)carbonyl]piperidin-3-yl}amino)pyridine-3-carboxylate]"
